This passage reports IC50 and inhibition results from ChEMBL document CHEMBL3596174, “Investigation on the sucrose binding pocket of HIV-1 Integrase by molecular dynamics and synergy experiments” (Bioorg Med Chem Lett, 2015).

Experiment [1] deals with Human immunodeficiency virus type 1 integrase (Human immunodeficiency virus 1, UniProt Q7ZJM1). Description: Binding affinity to recombinant HIV-1 integrase catalytic core domain expressed in Escherichia coli assessed as inhibition of interaction with […] by HTRF assay.
For experiment [2], the target named is Human immunodeficiency virus type 1 integrase (Human immunodeficiency virus 1) (UniProt Q7ZJM1). Description: Inhibition of His-tagged HIV-1 integrase-mediated 3' processing and strand transfer reactions using 5'-ACAGGCCTAGCACGCGTCG-Biotin-3' annealed with 5'-CGACGCGTGGTAGGCCTGT-Biotin3'/5'-Cy5-ATGTGGAAAATCTCTAGCAGT-3' annealed with 5'-Cy5-TGAGCTCGAGATTTTCCACAT-3' as donar/acceptor DNA substrate preincubated for 1 hr followed by DNA and LEDGF/p75 addition measured after 90 mins by HTRF assay.
Chain of Human immunodeficiency virus type 1 integrase (Human immunodeficiency virus 1) (Q7ZJM1 as listed by the source): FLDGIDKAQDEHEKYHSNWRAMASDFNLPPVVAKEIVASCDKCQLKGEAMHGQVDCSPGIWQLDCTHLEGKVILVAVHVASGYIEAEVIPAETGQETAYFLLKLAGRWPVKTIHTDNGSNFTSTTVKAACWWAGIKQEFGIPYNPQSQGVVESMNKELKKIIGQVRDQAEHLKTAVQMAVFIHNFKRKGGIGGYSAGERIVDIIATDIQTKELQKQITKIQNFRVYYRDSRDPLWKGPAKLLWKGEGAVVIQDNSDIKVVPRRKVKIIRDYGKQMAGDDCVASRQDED

Chain of Human immunodeficiency virus type 1 integrase (Q7ZJM1 whole entry, the tested form may be a part): as the sequence (Q7ZJM1 as listed by the source) above

One may read the IC50 as the midpoint of a concentration-inhibition curve. With `Cc1nc2ccc(Br)cc2c(-c2ccc(Cl)cc2)c1[C@H](OC(C)(C)C)C(=O)O`, the half-maximal inhibitory concentration (IC50) in experiment [1] is 60 nM.

With `CCC[C@H](C(=O)O)c1c(C)nc2ccc(Cl)cc2c1-c1ccccc1`, the inhibition result in experiment [2] was “Dose-dependent effect”. As for `Cc1nc2ccccc2c(-c2cc(F)c3c(c2C)CCCO3)c1[C@H](OC(C)(C)C)C(=O)O`, the IC50 in experiment [1] is 18 nM.
